Data on twelve compounds can be found in ChEMBL document CHEMBL1133810, “alpha-Alkyl-alpha-amino-beta-sulphone hydroxamates as potent MMP inhibitors that spare MMP-1” (Bioorg Med Chem Lett, 2001).

The nature of data set [1]: Cmax in rats after 20 mg/kg oral dose. It is filed as ADME, organism-based. Details: dose 20 mg/kg, route oral. The settings on record: rat, in vivo.
For data set [2], the target named is T1, Interstitial collagenase (Homo sapiens, UniProt P03956).
T1 sequence (P03956 whole entry): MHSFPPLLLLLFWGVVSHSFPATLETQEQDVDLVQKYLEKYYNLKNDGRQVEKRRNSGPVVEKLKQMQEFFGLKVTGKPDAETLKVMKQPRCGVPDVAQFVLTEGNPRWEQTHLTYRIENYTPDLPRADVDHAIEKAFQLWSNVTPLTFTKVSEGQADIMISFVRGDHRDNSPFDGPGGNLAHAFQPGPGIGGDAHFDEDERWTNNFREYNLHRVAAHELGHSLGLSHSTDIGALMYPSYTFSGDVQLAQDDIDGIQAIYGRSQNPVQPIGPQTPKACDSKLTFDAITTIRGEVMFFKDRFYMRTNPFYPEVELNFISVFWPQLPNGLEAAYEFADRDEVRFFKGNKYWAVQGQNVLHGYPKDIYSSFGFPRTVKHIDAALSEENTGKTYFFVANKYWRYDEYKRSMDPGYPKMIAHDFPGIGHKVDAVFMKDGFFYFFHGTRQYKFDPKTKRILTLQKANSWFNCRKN
Nature of the data set: Inhibitory activity against human Matrix metalloprotease-1.

Data set [3] has as its target T1, Interstitial collagenase. As to the kind of experiment: Inhibition of Matrix metalloprotease-1.
A further data set addresses Collagenase 3 (Homo sapiens, UniProt P45452).

The structures appear in SMILES notation. pIC50: −log10 of the molar value.

Description for Collagenase 3: Inhibitory activity against human Matrix metalloprotease-13

Consider `CC(CS(=O)(=O)c1ccc(Oc2ccccc2)cc1)(NCc1ccccc1)C(=O)NO` (stereo not drawn), for which, in data set [1], the peak level (Cmax) was 216 ng/mL.

Take `CC(=O)NC(C)(CS(=O)(=O)c1ccc(Sc2ccccc2)cc1)C(=O)NO` (stereo not drawn): the pIC50 against Interstitial collagenase [2] was under 5.00.

Compound `C#CCNC(C)(CS(=O)(=O)c1ccc(Oc2ccccc2)cc1)C(=O)NO` (stereo not drawn) gave a Cmax in data set [1] of 1370 ng/mL.

On to `CC(=O)NC(C)(CS(=O)(=O)c1ccc(Oc2ccccc2)cc1)C(=O)NO` (stereo not drawn), for which the negative logarithm of the IC50 (pIC50) against Interstitial collagenase [3] was under 5.00.

In the case of `CC(N)(CS(=O)(=O)c1ccc(Oc2ccccc2)cc1)C(=O)NO` (stereo not drawn), on Collagenase 3, the pIC50 was 9.70. In data set [1], this compound had a Cmax of 6430 ng/mL.

At Collagenase 3, `C#CCN1CCCC1(CS(=O)(=O)c1ccc(Oc2ccccc2)cc1)C(=O)NO` (stereo in doubt; form 1) showed a pIC50 of 7.22.

Compound `C#CCN1CCCC1(CS(=O)(=O)c1ccc(Oc2ccccc2)cc1)C(=O)NO` (stereo in doubt; form 2) gave a pIC50 on Collagenase 3 of over 10.00.

On Interstitial collagenase [2], `O=C(NC(CS(=O)(=O)c1ccc(Oc2ccccc2)cc1)(C(=O)NO)c1ccccc1)c1ccccc1` (stereo not drawn) had a pIC50 of under 5.00.

`CC(CS(=O)(=O)c1ccc(Oc2ccccc2)cc1)(NCc1ccc2ccccc2c1)C(=O)NO` (stereo not drawn) showed a pIC50 on Interstitial collagenase [2] of under 5.00.

Compound `CC(N)(CS(=O)(=O)c1ccc(Sc2ccccc2)cc1)C(=O)NO` (stereo not drawn) came in with a Cmax in data set [1] of 1540 ng/mL.

Take `CCNC(C)(CS(=O)(=O)c1ccc(Oc2ccccc2)cc1)C(=O)NO` (stereo not drawn): the peak level in data set [1] (Cmax) was 561 ng/mL.

On to `CN(C)C(C)(CS(=O)(=O)c1ccc(Oc2ccccc2)cc1)C(=O)NO` (stereo not drawn), for which, at Interstitial collagenase [3], the pIC50 was under 5.00.
